# Reference: patent US20240350597A1, “PROTEASE INHIBITORS” (University College Dublin, priority 2023, published 2024)
# Test system: SARS-CoV-2 (WT, D614G)
# Type: cell-based
# Conditions: 50 µM
substance,measurement,value
alpha-1-antitrypsin [A1AT],inhibition of SARS-CoV-2 replication / infection,45%
